Test results: EP2518139A1, “Use of indirubin derivatives for producing pluripotent stem cells” (Universitätsklinikum Jena, priority 2011, dated 2012)

Tests used:
Nanog = Nanog overexpression in Nanog-GFP Hek293T cells; format: cell-based, human; settings: 1µM E738, 24h
Src = biological target: T1, Src (Homo sapiens, UniProt P12931); assay: Kinase profiling assay (ProQinase); format: biochemical; settings: 1µM E738, 1µM ATP, recombinant protein kinase
T1 construct: purchased ProQinase
Procedure: (§1) Kinase Assay: The Kinase profiling assay was performed by ProQinase as previously described (Cheng et al.201 0).
(§2) Because E738 initially was designed as a protein kinase inhibitor, we asked if E738 induced dephoshorylation and degradation are caused by certain protein kinases. Thus we exploited protein kinase profiling containing several Smad-relative protein kinases like CDKs and GSK3ß to overview the inhibitory effect of E738 in vitro. The residual activities of kinases were measured by using recombinant protein kinases and proper substrates after treatment with 1µM E738 in the presence of 1µM ATP as our previously described. […] However the mechanism was still remained to elucidate. Recently, researchers argued that Raf kinase inhibitor may induce the activation of MAPKs in vitro and in vivo leading to the failure of cancer therapy (Hatzivassiliou nature 2010 464 431-436, Heidol cell 2010 140 209-221, Murphy PNAS 2010 107 9 4299-4304). We assumed that the indirubin activated MAPKs might be due to its inhibition against Raf kinase. Furthermore, the Lin et. al. described Stat3 inhibitor could disrupt TGFß signaling (Lin oncogene 200928 961-972). Therefore we included Raf and Stat3-relative protein kinases, like Jak, Kit and Src, in this small screening.

JAK2 = biological target: T2, JAK2 (Homo sapiens, UniProt O60674); assay: Kinase profiling assay (ProQinase); format: biochemical; settings: 1µM E738, 1µM ATP, recombinant protein kinase
T2 construct: purchased ProQinase
T2 sequence (O60674 whole entry): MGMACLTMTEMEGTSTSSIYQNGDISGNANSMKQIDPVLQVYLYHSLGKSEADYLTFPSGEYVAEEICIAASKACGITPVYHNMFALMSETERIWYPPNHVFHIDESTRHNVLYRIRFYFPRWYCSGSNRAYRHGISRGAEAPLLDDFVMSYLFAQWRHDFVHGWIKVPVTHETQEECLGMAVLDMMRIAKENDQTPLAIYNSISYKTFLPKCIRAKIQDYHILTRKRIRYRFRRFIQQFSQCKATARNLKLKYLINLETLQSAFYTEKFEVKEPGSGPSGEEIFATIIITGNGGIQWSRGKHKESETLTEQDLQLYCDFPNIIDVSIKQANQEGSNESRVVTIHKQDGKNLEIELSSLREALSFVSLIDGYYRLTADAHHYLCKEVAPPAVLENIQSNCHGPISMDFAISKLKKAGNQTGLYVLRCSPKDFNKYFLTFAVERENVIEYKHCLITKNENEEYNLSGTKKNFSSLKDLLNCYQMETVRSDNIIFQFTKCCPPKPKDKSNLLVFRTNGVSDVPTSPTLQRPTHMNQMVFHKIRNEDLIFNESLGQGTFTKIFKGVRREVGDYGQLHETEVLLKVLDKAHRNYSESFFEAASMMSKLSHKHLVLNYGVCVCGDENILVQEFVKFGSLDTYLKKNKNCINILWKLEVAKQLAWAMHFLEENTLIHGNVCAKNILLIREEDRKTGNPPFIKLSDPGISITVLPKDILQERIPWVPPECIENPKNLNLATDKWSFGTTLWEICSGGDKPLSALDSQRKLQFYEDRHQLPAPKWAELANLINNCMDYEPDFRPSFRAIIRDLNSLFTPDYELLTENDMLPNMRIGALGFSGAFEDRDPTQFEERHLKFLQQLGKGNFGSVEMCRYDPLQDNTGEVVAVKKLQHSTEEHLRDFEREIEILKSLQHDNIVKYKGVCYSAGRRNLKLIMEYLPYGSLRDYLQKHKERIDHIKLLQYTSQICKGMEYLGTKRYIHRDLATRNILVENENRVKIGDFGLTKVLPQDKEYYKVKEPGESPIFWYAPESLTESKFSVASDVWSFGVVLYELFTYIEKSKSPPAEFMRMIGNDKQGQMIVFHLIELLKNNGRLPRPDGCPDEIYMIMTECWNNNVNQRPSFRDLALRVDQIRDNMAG
Procedure: as §1, §2

KIT = biological target: T3, KIT (Homo sapiens, UniProt P10721); assay: Kinase profiling assay (ProQinase); format: biochemical; settings: 1µM E738, 1µM ATP, recombinant protein kinase
T3 construct: purchased ProQinase
Procedure: as §1, §2

b-Raf = biological target: T4, b-Raf (Homo sapiens, UniProt P15056); assay: Kinase profiling assay (ProQinase); format: biochemical; settings: 1µM E738, 1µM ATP, recombinant protein kinase
T4 construct: purchased ProQinase
T4 sequence (P15056 whole entry): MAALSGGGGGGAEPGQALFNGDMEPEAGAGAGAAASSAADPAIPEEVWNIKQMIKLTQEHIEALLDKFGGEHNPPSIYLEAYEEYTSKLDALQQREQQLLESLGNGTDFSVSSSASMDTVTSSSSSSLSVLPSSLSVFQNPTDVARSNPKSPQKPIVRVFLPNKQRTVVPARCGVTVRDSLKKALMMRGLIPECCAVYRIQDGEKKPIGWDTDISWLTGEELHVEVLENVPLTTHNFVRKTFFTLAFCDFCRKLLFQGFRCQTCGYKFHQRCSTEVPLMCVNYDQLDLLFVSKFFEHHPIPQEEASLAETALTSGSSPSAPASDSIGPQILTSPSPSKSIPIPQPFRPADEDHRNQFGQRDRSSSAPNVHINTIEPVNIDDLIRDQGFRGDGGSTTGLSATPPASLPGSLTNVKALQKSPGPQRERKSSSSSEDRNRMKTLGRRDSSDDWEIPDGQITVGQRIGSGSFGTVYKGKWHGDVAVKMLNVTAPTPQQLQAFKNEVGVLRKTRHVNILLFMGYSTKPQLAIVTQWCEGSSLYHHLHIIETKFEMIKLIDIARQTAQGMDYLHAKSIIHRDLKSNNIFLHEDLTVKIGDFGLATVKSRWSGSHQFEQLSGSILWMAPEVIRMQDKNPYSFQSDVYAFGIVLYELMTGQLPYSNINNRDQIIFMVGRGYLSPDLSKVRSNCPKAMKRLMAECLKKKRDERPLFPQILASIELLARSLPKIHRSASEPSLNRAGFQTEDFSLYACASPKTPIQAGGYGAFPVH
Procedure: as §1, §2

GSK3ß = biological target: T5, GSK3ß (Homo sapiens, UniProt P49841); assay: Kinase profiling assay (ProQinase), residual activity; format: biochemical; settings: read-out: residual activity of GSK3ß
T5 construct: purchased ProQinase
T5 sequence (P49841 whole entry): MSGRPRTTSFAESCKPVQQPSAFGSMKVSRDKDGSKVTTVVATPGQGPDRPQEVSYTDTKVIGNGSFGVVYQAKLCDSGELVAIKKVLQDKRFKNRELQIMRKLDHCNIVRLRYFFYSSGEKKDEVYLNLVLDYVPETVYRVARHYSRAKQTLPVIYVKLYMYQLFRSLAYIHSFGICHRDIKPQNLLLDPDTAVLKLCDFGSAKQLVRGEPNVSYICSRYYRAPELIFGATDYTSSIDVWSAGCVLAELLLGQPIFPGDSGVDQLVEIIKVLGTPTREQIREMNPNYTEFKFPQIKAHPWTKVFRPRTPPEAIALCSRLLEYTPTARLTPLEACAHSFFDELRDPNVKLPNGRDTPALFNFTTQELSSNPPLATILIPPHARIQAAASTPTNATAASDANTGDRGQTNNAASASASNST
Procedure: as §1, §2

CDK4/CycD1 = biological target: T6, CDK4/CycD1 (Homo sapiens, UniProt P11802); assay: as above; format: biochemical; settings: 1µM E738, 1µM ATP, recombinant protein kinase
T6 construct: purchased ProQinase
T6 sequence (P11802 whole entry): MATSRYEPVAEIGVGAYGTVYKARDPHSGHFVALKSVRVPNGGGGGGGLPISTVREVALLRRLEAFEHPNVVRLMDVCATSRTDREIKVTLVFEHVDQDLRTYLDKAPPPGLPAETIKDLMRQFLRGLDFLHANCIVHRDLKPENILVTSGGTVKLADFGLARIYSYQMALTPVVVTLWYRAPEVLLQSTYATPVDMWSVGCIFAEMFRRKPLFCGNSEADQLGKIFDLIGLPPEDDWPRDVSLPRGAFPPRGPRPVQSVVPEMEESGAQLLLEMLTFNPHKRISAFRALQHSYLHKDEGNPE
T6 sequence (P24385 whole entry partner): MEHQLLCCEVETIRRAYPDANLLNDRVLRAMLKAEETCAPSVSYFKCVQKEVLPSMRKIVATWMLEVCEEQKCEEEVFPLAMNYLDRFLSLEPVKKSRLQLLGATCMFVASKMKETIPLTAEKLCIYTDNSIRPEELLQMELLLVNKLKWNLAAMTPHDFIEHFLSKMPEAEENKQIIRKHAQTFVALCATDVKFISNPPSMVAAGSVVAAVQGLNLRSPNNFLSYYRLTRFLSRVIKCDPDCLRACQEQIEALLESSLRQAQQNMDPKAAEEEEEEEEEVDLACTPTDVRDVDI
Procedure: as §1, §2

CDK2/CycA = biological target: T7, CDK2/CycA (Homo sapiens, UniProt P24941); assay: as above; format: biochemical; settings: 1µM E738, 1µM ATP, recombinant protein kinase
T7 construct: purchased ProQinase
Procedure: as §1, §2

CDK1/CycB1 = biological target: T8, CDK1/CycB1 (Homo sapiens, UniProt P06493); assay: as above; format: biochemical; settings: 1µM E738, 1µM ATP, recombinant protein kinase
T8 construct: purchased ProQinase
T8 sequence (P06493 whole entry): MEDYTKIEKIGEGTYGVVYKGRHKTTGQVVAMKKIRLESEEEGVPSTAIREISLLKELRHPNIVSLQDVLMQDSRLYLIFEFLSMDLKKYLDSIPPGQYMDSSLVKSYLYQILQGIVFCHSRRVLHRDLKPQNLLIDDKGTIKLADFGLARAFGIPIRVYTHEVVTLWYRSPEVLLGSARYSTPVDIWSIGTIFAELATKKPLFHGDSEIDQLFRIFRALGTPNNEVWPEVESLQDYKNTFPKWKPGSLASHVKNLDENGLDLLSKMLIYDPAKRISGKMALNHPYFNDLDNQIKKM
T8 sequence (P14635 whole entry partner): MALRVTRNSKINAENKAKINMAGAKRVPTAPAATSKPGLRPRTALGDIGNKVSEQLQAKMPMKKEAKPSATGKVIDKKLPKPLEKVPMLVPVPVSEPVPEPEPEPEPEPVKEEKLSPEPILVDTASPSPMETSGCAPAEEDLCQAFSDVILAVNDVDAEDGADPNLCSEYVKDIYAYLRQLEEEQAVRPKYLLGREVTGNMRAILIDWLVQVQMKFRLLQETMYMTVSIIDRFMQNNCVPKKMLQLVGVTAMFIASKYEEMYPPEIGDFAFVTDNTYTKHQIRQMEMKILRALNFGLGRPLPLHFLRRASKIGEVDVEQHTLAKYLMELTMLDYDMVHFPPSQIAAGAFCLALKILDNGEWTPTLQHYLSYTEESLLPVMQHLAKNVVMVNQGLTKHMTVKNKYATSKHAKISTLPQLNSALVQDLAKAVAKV
Procedure: as §1, §2

CDK5/p35 = biological target: T9, CDK5/p35 (Homo sapiens, UniProt Q00535); assay: as above; format: biochemical; settings: 1µM E738, 1µM ATP, recombinant protein kinase
T9 construct: purchased ProQinase
T9 sequence (Q00535 whole entry): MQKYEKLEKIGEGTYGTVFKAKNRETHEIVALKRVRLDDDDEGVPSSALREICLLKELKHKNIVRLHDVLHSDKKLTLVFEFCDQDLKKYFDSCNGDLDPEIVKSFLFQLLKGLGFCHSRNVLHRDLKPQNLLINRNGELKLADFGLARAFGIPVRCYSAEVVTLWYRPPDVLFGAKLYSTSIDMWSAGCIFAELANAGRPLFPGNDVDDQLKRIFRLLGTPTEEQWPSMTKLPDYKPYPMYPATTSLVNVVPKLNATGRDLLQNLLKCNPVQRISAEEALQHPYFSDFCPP
T9 sequence (Q15078 whole entry partner): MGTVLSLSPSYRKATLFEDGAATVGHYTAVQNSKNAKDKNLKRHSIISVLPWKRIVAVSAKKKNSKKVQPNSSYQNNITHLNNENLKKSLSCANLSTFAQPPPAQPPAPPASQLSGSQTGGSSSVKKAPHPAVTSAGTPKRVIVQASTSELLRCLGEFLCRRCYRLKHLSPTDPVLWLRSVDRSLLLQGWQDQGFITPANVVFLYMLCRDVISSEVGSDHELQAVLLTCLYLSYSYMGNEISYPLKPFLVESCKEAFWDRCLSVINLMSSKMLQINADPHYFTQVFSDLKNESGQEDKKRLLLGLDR
Procedure: as §1, §2

CDK2/CycE = biological target: T10, CDK2/CycE (Homo sapiens, UniProt P24941); assay: as above; format: biochemical; settings: 1µM E738, 1µM ATP, recombinant protein kinase
T10 construct: purchased ProQinase
Procedure: as §1, §2

[1] = test system: BMP/TGFß downstream genes (ID1, ID2, CTGF, SnoN); assay: qRT-PCR of BMP/TGFß downstream genes in HeLa cells; format: cell-based, human; settings: E738 (1µM)
Procedure: RT-PCR: Total RNA was isolated with RNA isolation kit from Qiagen according to the manufacturer's instructions. cDNA was generated by reverse-transcription of equivalent quantities of RNA and Quantitative real-time PCR (QRT-PCR) was performed as described previously.
To evaluate the effect of indirubin on transcriptional activity, we focused on the BMP/Smad pathway and performed RT-PCR to measure the BMP/TGFß downstream genes expression regulated by E738 (Fig. 2E). […] As for ID2 only 50% was remained to be expressed. CTGF, a BMP antagonist and TGFß agonist (Abreu 2002 nature cell biology 4 599-607) and SnoN, a TGFß downstream gene were declined up to approximate 30% and 10% respectively.

ß-Catenin = assay: Immunoblot of non-phosphorylation-ß-Catenin in HeLa cells; format: cell-based, human; settings: 1 h, BMP2 (100ng/mL), already from 0.1µM
Procedure: (§3) Western blot:: Cell extracts were homogenized in Urea-Lysis buffer (1mM EDTA,0.5% Triton X-100), 5mM NaF, 6M Urea, 1mM Na3VO4, 10µg/mL Pepstatin, 100µM PMSF and 3µg/mL Aprotinin in PBS). Enhanced chemiluminescence (ECL) Western blot analysis was performed. 20-40µg of total protein was resolved on 10% SDS-PAGE gels and immunoblotted with specific antibodies. Primary antibodies were incubated at a 1:1,000 dilution in TBS (pH 7.5) with 0.1% Tween-20 and 5% BSA/nonfat milk with gentle agitation overnight at 4°C. The proper secondary antibodies were incubated in TBS (pH 7.5) with 5% BSA/nonfat milk and 0.1 % Tween-20 at a 1:5,000 dilution for 1 h at room temperature.
(§4) To assess the effect of E738 on Wnt and Stat3 pathway in mammalian cellular context, HeLa cells were treated with E738 at increasing concentrations for 1 h. Here E804 was used as reference because of its well-known inhibition of Stat3 and Wnt. The antibodies of p-Stat3 and non-phosphorylation-ß-Catenin (NP-ß-Catenin, Ser33/37/Thr41), which can provide a convenient positive band if GSK3B is inhibited, were recruited to substantiated our in vitro results. […] With the stimulation of FCS, we also observed the similar regulation on Stat3 and MAPKs pathways depicted in Fig. 8.

Stat3 = assay: Immunoblot of p-Stat3 in HeLa cells; format: cell-based, human; settings: 1 h, BMP2 (100ng/mL), already from 0.1µM
Procedure: as §3, §4

[2] = test system: BMP- and TGFß-relative R-Smads; assay: Immunoblot of BMP- and TGFß-relative R-Smads in HeLa cells (TGFß or FCS stimulation); format: cell-based, human
Smad1/5/8 = assay: Immunostaining of pan-Smad1/5/8 in C2C12; format: cell-based, mouse; settings: C2C12, BMP2 (100ng/mL), 12h
Procedure: Immunostaining: The serum-depleted C2C12 cells were coinbubated with BMP2 (100ng/mL) and E738 at various concentration as indicated for 12h. Cells were fixed in 4% PFA and immunostained with Smad1/5/8 antibody (1:100) and DAPI as described previously.
To access the generality of the E738 effect on BMP/Smad, we treated C2C12, HFF and NIH 3T3 with various concentrations of E738 and probed cell extracts with p- and pan-Smad1/5/8 antibodies. […] In addition, E738 at 0.5µM concentration is already sufficient to reduce Smad1/5/8 in HFF and NIH3T3 implicating that fibroblast might be more sensitive to the IRDs treatment.

tumor cells = assay: MTT assay, tumor cells; format: cell-based; settings: various cancer cell lines, read-out: IC50-values, tumor cells growth

T1 sequence (P12931 whole entry): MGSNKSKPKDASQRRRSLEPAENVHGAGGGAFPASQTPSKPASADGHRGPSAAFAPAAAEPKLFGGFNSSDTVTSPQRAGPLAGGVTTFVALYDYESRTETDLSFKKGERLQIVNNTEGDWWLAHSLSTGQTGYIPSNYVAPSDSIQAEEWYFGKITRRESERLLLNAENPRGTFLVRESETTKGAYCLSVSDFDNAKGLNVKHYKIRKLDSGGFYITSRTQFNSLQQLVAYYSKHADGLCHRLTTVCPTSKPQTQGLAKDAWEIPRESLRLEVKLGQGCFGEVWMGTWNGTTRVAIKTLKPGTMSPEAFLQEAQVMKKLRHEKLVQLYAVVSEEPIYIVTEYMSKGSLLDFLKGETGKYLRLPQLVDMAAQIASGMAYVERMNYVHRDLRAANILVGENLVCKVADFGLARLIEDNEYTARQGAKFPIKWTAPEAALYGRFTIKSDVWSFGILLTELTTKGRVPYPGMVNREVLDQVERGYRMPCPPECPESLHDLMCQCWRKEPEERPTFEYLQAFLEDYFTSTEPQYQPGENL

COc1ccc2c(c1)C(=C1Nc3ccccc3C1=NOCC(O)CO)C(=O)N2 (stereo not drawn) [E738] was tested, and the Nanog-overexpression (Nanog) was “promotes Nanog-overexpression”, the “inhibition of Src” value (Src) was “generally inhibited” and the “inhibition of JAK2” value (JAK2) was “generally inhibited”. For the same compound, the “inhibition of KIT” value (KIT) was “generally inhibited”, the “blocked activity of b-Raf” value (b-Raf) was 57% and the remaining activity at 1 µM (GSK3ß) was 6%. For the same compound, the remaining activity at 1 µM (CDK4/CycD1) was 23%, the remaining activity at 1 µM (CDK2/CycA) was 10% and the remaining activity at 1 µM (CDK1/CycB1) was 16%. The remaining activity at 1 µM (CDK5/p35) was 16%, the remaining activity at 1 µM (CDK2/CycE) was 8% and the ID2 expression ([1]; BMP2 (100ng/mL), 1 h after incubation) was “firstly silenced”. For the same compound, the ID2 expression ([1]; BMP2 (100ng/mL), 6h treatment) was “doubled again”, the ID1 expression ([1]; BMP2 (100ng/mL), time course) was “constantly reduced” and the “CTGF expression, declined up to” value ([1]; BMP, 24h) was ~30%. The “ID2 remained to be expressed” value ([1]; BMP, 24h) was 50%, the “SnoN expression, declined up to” value ([1]; BMP, 24h) was ~10% and the “expression of ID1” value ([1]; BMP, 24h) was “significantly repressed”. For the same compound, the “non-phosphorylation-ß-Catenin (NP-ß-Catenin, Ser33/37/Thr41)” value (ß-Catenin) was “highly stabilized ß-Catenin”, the “phosphorylation of Stat3” value (Stat3) was “repressed phosphorylation of Stat3” and the “BMP- and TGFß-relative R-Smads” value ([2]; BMP2 (100ng/mL) or TGFß (20ng/mL), 4h treatment) was “influenced on both BMP- and TGFß-relative R-Smads in concentration dependent manner”. For the same compound, the “P- and pan-Smads (R-Smads)” value ([2]; TGFß (20ng/mL), 24h, E738 (1µM), Bio (5µM), DM (1µM), Repsox (10µM)) was “abolishment of both BMP- and TGFß-relative R-Smads”, the “pan Smad1/5/8 by immunostaining” value (Smad1/5/8) was “depletion of pan Smad1/5/8 as early as 12h treatment” and the IC50 (tumor cells) was < 1000 nM.
